How the values were obtained:
[1] = target: T1, RORγ-LBD (Homo sapiens, UniProt P51449); experiment: RORγ-Ligand Binding Domain (LBD) TR-FRET Assay; format: biochemical; conditions: for TR-FRET Assay Max Response: maximum response;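 for TR-FRET Assay Max Response: 665/615 nm signal ratio set to 100 without ursolic acid or test compound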
T1 construct: made in house; host or cells: SF9 cells (baculovirus); used as diluted lysate
T1 sequence (P51449 269-508 limits assumed): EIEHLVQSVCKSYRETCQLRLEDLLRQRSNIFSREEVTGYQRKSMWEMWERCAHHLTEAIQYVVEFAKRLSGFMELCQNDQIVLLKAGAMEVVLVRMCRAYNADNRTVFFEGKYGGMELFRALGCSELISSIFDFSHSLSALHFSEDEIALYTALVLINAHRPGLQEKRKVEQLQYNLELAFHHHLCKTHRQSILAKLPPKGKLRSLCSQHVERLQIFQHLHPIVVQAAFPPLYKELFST
How it was run: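 Lysate from SF9 cells expressing His-RORγ-LBD is diluted to about 3 nM final in 50 mM Tris pH 7.0 assay buffer. A biotin-tagged SRC1 LXXLL peptide goes in at 200 nM final, plus ursolic acid at 2 μM final. Test compounds carry 1% DMSO final; signal read by TR-FRET.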

[2] = target: T2, Gal4-RORγ-LBD (Homo sapiens, UniProt P51449); experiment: Gal4-RORγ Luciferase Reporter Assay in HEK-293T Cells; format: cell-based; conditions: HEK-293 cells, luciferase reporter; for Gal4-RORγ Assay Max Response: maximum response
T2 construct: expressed in transfected cells
T2 sequence (P51449 269-508 limits assumed): T1 sequence (P51449 269-508 limits assumed)
How it was run: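 Max Response was taken as the upper plateau of a 4-parameter logistic fit of luciferase signal, normalized to 100 for wells without ursolic acid or compound. Transiently Gal4-RORγ-LBD/Gal4-luc transfected HEK-293 cells carrying […] ursolic acid were incubated with test compounds (0.2% DMSO) overnight at 37 °C and read with One-Glo.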

SMILES	EC50 ([1]; RORγ-LBD TR-FRET assay) [nM]	TR-FRET Assay Max Response ([1]; RORγ-LBD TR-FRET assay)	EC50 ([2]; in presence of ursolic acid) [nM]	Gal4-RORγ Assay Max Response ([2]; in presence of ursolic acid)	EC50 ([1]; RORγ-LBD TR-FRET) [nM]	EC50 ([2]; with ursolic acid) [nM]
C/C(=C\c1ccc2c(c1)N(S(=O)(=O)c1cccc(C(F)(F)F)c1)[C@H](C)[C@H](NS(C)(=O)=O)C2)c1c(F)cccc1Cl [Example 116J, N-((2R,3R)-7-((E)-2-(2-chloro-6-fluorophenyl)prop-1-en-1-yl)-2-methyl-1-((3-(trifluoromethyl)phenyl)sulfonyl)-1,2,3,4-tetra-hydroquinolin-3-yl)methanesulfonamide]	< 500	*** (a value in the range of greater than 150 to 200)	500 to 5000	*** (a value in the range of greater than 150 to 200)	–	–
O=C(O)CC[C@H]1CN(S(=O)(=O)c2cccc(C(F)(F)F)c2)c2cc(C=C3CCCC3)ccc2O1 [Example 92, (S)-3-(6-(Cyclopentylidenemethyl)-4-((3-(trifluoromethyl)phenyl)sulfonyl)-3,4-dihydro-2H-benzo[b][1,4]oxazin-2-yl)propanoic acid]	–	–	–	–	< 500	500 to 5000
CC(O[C@@H]1Cc2ccc(OCc3c(F)cccc3Cl)cc2N(S(=O)(=O)c2cccc(C(F)(F)F)c2)C1)C(=O)O (stereo partly drawn) [Example 173C, 2-(((R)-7-((2-chloro-6-fluorobenzyl)oxy)-1-((3-(trifluoromethyl)phenyl)sulfonyl)-1,2,3,4-tetrahydroquinolin-3-yl)oxy)propanoic acid]	< 500	** (a value in the range of greater than 90 to 150)	< 500	** (a value in the range of greater than 90 to 150)	–	–
COc1cc(S(=O)(=O)N2C[C@H](CNC(C)=O)Oc3ccc(/C=C(\C)c4c(F)cccc4Cl)cc32)ccc1F [Example 109B, (S,E)-N-((6-(2-(2-chloro-6-fluorophenyl)prop-1-en-1-yl)-4-((4-fluoro-3-methoxyphenyl)-sulfonyl)-3,4-dihydro-2H-benzo[b][1,4]oxazin-2-yl)methyl)acetamide]	< 500	** (a value in the range of greater than 90 to 150)	< 500	* (a value in the range of 30 to 90)	–	–
O=C(O)CC[C@H]1CN(S(=O)(=O)c2cccc(C(F)(F)F)c2)c2cc(C=C3CCC(F)(F)CC3)ccc2O1 [Example 95L, (S)-3-(6-((4,4-difluorocyclo-hexylidene)methyl)-4-((3-(trifluoromethyl)phenyl)sulfonyl)-3,4-dihydro-2H-benzo[b][1,4]oxazin-2-yl)propanoic acid]	–	–	–	–	< 500	< 500
C/C(=C\c1ccc2c(c1)N(S(=O)(=O)c1cn(C(C)C)nc1OCCO)C[C@H](CCC(=O)O)O2)c1c(F)cccc1Cl [Example 86AY, (S,E)-3-(6-(2-(2-chloro-6-fluorophenyl)prop-1-en-1-yl)-4-((3-(2-hydroxyethoxy)-1-isopropyl-1H-pyrazol-4-yl)sulfonyl)-3,4-dihydro-2H-benzo[b][1,4]oxazin-2-yl)propanoic acid]	–	–	–	–	< 500	< 500
O=S(=O)(c1cccc(C(F)(F)F)c1)N1C[C@H](CO)Oc2ccc(Oc3ccccc3)cc21 [Example 130, (R)-(6-Phenoxy-4-((3-(trifluoromethyl)phenyl)sulfonyl)-3,4-dihydro-2H-benzo[b][1,4]oxazin-2-yl)methanol]	< 500	*** (a value in the range of greater than 150 to 200)	500 to 5000	** (a value in the range of greater than 90 to 150)	–	–
CC(=O)NCC1CC(S(=O)(=O)c2cccc(C(F)(F)F)c2)c2cc(/C=C(\C)c3c(F)cccc3Cl)ccc2O1 (stereo not drawn) [Example 181, (E)-N-((6-(2-(2-Chloro-6-fluorophenyl)prop-1-en-1-yl)-4-((3-(trifluoromethyl)phenyl)sulfonyl)chroman-2-yl)methyl)acetamide]	< 500	** (a value in the range of greater than 90 to 150)	< 500	** (a value in the range of greater than 90 to 150)	–	–
O=C(O)CC[C@H]1CN(S(=O)(=O)c2cccc(C(F)(F)F)c2)c2cc(/C=C/c3ccc(Cl)cc3F)ccc2O1 [Example 89BH, (S,E)-3-(6-(4-chloro-2-fluorostyryl)-4-((3-(trifluoromethyl)phenyl)sulfonyl)-3,4-dihydro-2H-benzo[b][1,4]oxazin-2-yl)propanoic acid]	–	–	–	–	< 500	> 10000
COC(=O)CC[C@H]1CN(S(=O)(=O)c2cccc(C(F)(F)F)c2)c2cc(/C=C(\C)c3c(F)cccc3Cl)cc(F)c2O1 [Example 49, (S,E)-Methyl 3-(6-(2-(2-chloro-6-fluorophenyl)prop-1-en-1-yl)-8-fluoro-4-((3-(trifluoromethyl)phenyl)sulfonyl)-3,4-dihydro-2H-benzo[b][1,4]oxazin-2-yl)propanoate]	–	–	–	–	< 500	500 to 5000
CC(=O)NCC[C@H]1CN(S(=O)(=O)c2cccc(C(F)(F)F)c2)c2cc(/C=C(\C)c3c(F)cccc3Cl)ccc2O1 [Example 112, (S,E)-N-(2-(6-(2-(2-Chloro-6-fluorophenyl)prop-1-en-1-yl)-4-((3-(trifluoromethyl)phenyl)sulfonyl)-3,4-dihydro-2H-benzo[b][1,4]oxazin-2-yl)ethyl)acetamide]	< 500	*** (a value in the range of greater than 150 to 200)	< 500	** (a value in the range of greater than 90 to 150)	–	–
COc1cc(S(=O)(=O)C2CC(CC(C)(C)C(=O)O)Oc3ccc(OCc4c(F)cccc4Cl)cc32)ccc1F (stereo not drawn) [Example 186C, 3-(6-((2-chloro-6-fluorobenzyl)oxy)-4-((4-fluoro-3-methoxyphenyl)sulfonyl)chroman-2-yl)-2,2-dimethylpropanoic acid]	< 500	*** (a value in the range of greater than 150 to 200)	> 10000	** (a value in the range of greater than 90 to 150)	–	–
C/C(=C\c1cc2c(cc1Cl)O[C@@H](CCC(=O)O)CN2S(=O)(=O)c1cccc(C(F)(F)F)c1)c1c(F)cccc1Cl [Example 46, (S,E)-3-(7-Chloro-6-(2-(2-chloro-6-fluorophenyl)prop-1-en-1-yl)-4-((3-(trifluoromethyl)phenyl)sulfonyl)-3,4-dihydro-2H-benzo[b][1,4]oxazin-2-yl)propanoic acid]	–	–	–	–	< 500	< 500
CCOc1nn(CC)cc1S(=O)(=O)N1C[C@H](CCC(=O)OC)Oc2ccc(/C=C(\C)c3c(F)cccc3Cl)cc21 [Example 86J, (S,E)-methyl 3-(6-(2-(2-chloro-6-fluorophenyl)prop-1-en-1-yl)-4-((3-ethoxy-1-ethyl-1H-pyrazol-4-yl)sulfonyl)-3,4-dihydro-2H-benzo[b][1,4]oxazin-2-yl)propanoate]	–	–	–	–	< 500	< 500
O=C(O)CC[C@H]1CN(S(=O)(=O)c2cccc(C(F)(F)F)c2)c2cc(/C=C/c3ncccc3C(F)(F)F)ccc2O1 [Example 89BI, (S,E)-3-(4-((3-(trifluoromethyl)phenyl)sulfonyl)-6-(2-(3-(trifluoromethyl)pyridin-2-yl)vinyl)-3,4-dihydro-2H-benzo[b][1,4]oxazin-2-yl)propanoic acid]	–	–	–	–	< 500	< 500
CCOc1ncc(C(F)(F)F)cc1S(=O)(=O)N1C[C@H](CCC(=O)OC)Oc2ccc(/C=C(\C)c3c(F)cccc3Cl)cc21 [Example 33, (S,E)-Methyl 3-(6-(2-(2-chloro-6-fluorophenyl)prop-1-en-1-yl)-4-((2-ethoxy-5-(trifluoromethyl)pyridin-3-yl)sulfonyl)-3,4-dihydro-2H-benzo[b][1,4]oxazin-2-yl)propanoate]	–	–	–	–	< 500	500 to 5000
C/C(=C\c1ccc2c(c1)N(S(=O)(=O)c1cccc(C(F)(F)F)c1)C[C@H](CCCN1CCC(O)C1)O2)c1c(F)cccc1Cl (stereo partly drawn) [Example 119B, 1-(3-((S)-6-((E)-2-(2-chloro-6-fluorophenyl)prop-1-en-1-yl)-4-((3-(trifluoromethyl)-phenyl)-sulfonyl)-3,4-dihydro-2H-benzo[b][1,4]-oxazin-2-yl)propyl)-pyrrolidin-3-ol]	< 500	*** (a value in the range of greater than 150 to 200)	500 to 5000	** (a value in the range of greater than 90 to 150)	–	–
O=S(=O)(c1cccc(C(F)(F)F)c1)N1C[C@@H](O)Cc2ccc(OCc3c(F)cccc3Cl)cc21 [Example 158, (S)-7-((2-Chloro-6-fluorobenzyl)oxy)-1-((3-(trifluoromethyl)phenyl)sulfonyl)-1,2,3,4-tetrahydroquinolin-3-ol]	< 500	–	< 500	–	–	–
C/C(=C\c1c(F)cccc1Cl)c1ccc2c(c1)N(S(=O)(=O)c1cccc(C(F)(F)F)c1)C[C@H](CCC(=O)O)O2 [Example 32, (S,E)-3-(6-(1-(2-Chloro-6-fluorophenyl)prop-1-en-2-yl)-4-((3-(trifluoromethyl)phenyl)sulfonyl)-3,4-dihydro-2H-benzo[b][1,4]oxazin-2-yl)propanoic acid]	–	–	–	–	< 500	5000 to 10000

From patent US9896441B2 (Lycera Corporation, priority 2014, dated 2018)
